Earlier results as cited in US7189798B2, “Composition containing mixture of dihydroxybutane sulfonates” (Eastman Chemical Company, priority 2001, dated 2007).

Conditions: in vivo

Compound: OC[C@H]1O[C@@H]2O[C@H]3[C@H](O)[C@@H](O)[C@@H](O[C@H]4[C@H](O)[C@@H](O)[C@@H](O[C@H]5[C@H](O)[C@@H](O)[C@@H](O[C@H]6[C@H](O)[C@@H](O)[C@@H](O[C@H]7[C@H](O)[C@@H](O)[C@@H](O[C@H]8[C@H](O)[C@@H](O)[C@@H](O[C@H]1[C@H](O)[C@H]2O)O[C@@H]8CO)O[C@@H]7CO)O[C@@H]6CO)O[C@@H]5CO)O[C@@H]4CO)O[C@@H]3CO [β-CD, β-cyclodextrin]
- Renal and liver damage after parenteral administration: cause renal and liver damage
